Data on one compound can be found in patent publication US10772890B2, “Use of myeloperoxidase (MPO) inhibitors or pharmaceutically acceptable salts thereof to treat multiple system atrophy (MSA) 938” (ASTRAZENECA AB, priority 2007, dated 2020).

Holding throughout (format): in vivo
In assay [1] the test system is MSA mice (tg+3NP). Kind of assay: Microglial activation (optical density) in substantia nigra and striatum of MSA mice. Conditions: high dose 180 μmol/kg p.o. twice daily, FIG. 6. The protocol: (§1) A total of 30 (PLP)-α-synuclein transgenic mice were used. Animals were housed at 12/12 hours dark/light cycle with free access to food and water in the animal facility of the Innsbruck Medical University. All experiments were performed in accordance with the Austrian law and after permission for animal experiments of the Federal Ministry for Education, Science, and Culture of Austria.
(§2) Low dose group (n=10) MSA mice (tg+3NP) treated with 1-(2-Isopropoxyethyl)-2-thioxo-1,2,3,5-tetrahydro-pyrrolo[3,2-d]pyrimidin-4-one (Compound I; prepared by AstraZeneca), 2×6 μmol/kg p.o.
(§3) High dose group (n=10) MSA mice (tg+3NP) treated with Compound I (prepared by AstraZeneca), 2×180 μmol/kg, p.o.
(§4) 1-(2-Isopropoxyethyl)-2-thioxo-1,2,3,5-tetrahydro-pyrrolo[3,2-d]pyrimidin-4-one (Compound I treatment) was started one week prior to the first 3NP intoxication and stopped three weeks after the first 3NP intoxication (see 3NP intoxication protocol below). […]
(§5) Stereology was applied using a computer-assisted image analysis system (Nikon E-800 microscope, CCD video camera, Optronics MicroFire, Goleta, USA; Stereo Investigator Software, MicroBrightField Europe e.K., Magdeburg, Germany). […] Purkinje cells were counted in a region outlined to include only the Purkinje cell layer as previously reported (German D C. et al. Neuroscience. 2001; 105:999-1005). All data were expressed as mean value±SEM. […]

For assay [2], the system named is MSA mice (tg+3NP). The assay is described as follows: Motor clinical scale evaluation in MSA mouse model. The following applies: p.o. twice daily, compared to vehicle treated mice, FIG. 1. From the text: A novel mouse model of MSA has been developed by inducing oxidative stress in transgenic mice with oligodendroglial α-synuclein expression (described herein). This model reproduces the cardinal neuropathological features of the disease including striatonigral degeneration (SND), olivopontocerebellar atrophy (OPCA), astrogliosis and microgliosis combined with oligodendroglial insoluble α-synuclein inclusions. Mitochondrial inhibition by 3NP in the presence of glial cytoplasmic inclusions in transgenic mice induces a selective neuronal cell death pattern typical for MSA in these animals (Stefanova N. et al. Am. J. Pathol. 2005; 166:869-76).
Thus, in the present invention, MPO inhibitors have been use to suppress MPO activity in an MSA mouse model consisting of an oligodendroglial α-SYN overexpression in transgenic mice exposed to mitochondrial inhibition by 3-nitropropionic acid (3NP). The effects were followed by application of established immunohistological and behavioral methods to evaluate the participation of MPO in the pathogenesis of MSA and the possible neuroprotective effects of in an MSA model.
A total of 30 (PLP)-α-synuclein transgenic mice were used. Animals were housed at 12/12 hours dark/light cycle with free access to food and water in the animal facility of the Innsbruck Medical University. […]

Assay [3] has as its system MSA mice (tg+3NP). The assay is described as follows: Open field activity (Flex Field Activity System) in MSA mouse model. Conditions: high dose 180 μmol/kg p.o. twice daily, FIG. 2. The protocol:
as §1, §2, §3
1-(2-Isopropoxyethyl)-2-thioxo-1,2,3,5-tetrahydro-pyrrolo[3,2-d]pyrimidin-4-one (Compound I treatment) was started one week prior to the first 3NP intoxication and stopped three weeks after the first 3NP intoxication (see 3NP intoxication protocol below). Animals underwent behavioral tests during week 3-4 after the beginning of the experiment. On day 28 animals were perfused under deep thiopental anesthesia and the brains were collected for histopathological analysis of neuronal loss and gliosis. […]

The test system of assay [4] is MSA mice (tg+3NP). Kind of assay: Stride length test in MSA mouse model. The following applies: high dose 180 μmol/kg p.o. twice daily, FIG. 3. The protocol:
as §1, §2, §3, §4
The stride length of the forelimbs and hindlimbs of the mice was measured after a habituation to the test for 3 days before its performance according to Fernagut et al. (Fernagut P O. et al. Neuroscience. 2002; 114:1005-17) with slight modification. […] After three runs, the stride length of the hindlimbs on each side was measured, excluding the beginning (7 cm) and the end (7 cm) of the run. The mean stride length for each limb was determined.

In assay [5] the test system is MSA mice (tg+3NP). Kind of assay: Neuropathology: immunohistochemistry and stereological neuron counts in MSA mouse model. The method, then:
as §1, §2, §3
1-(2-Isopropoxyethyl)-2-thioxo-1,2,3,5-tetrahydro-pyrrolo[3,2-d]pyrimidin-4-one (Compound I treatment) was started one week prior to the first 3NP intoxication and stopped three weeks after the first 3NP intoxication (see 3NP intoxication protocol below). Animals underwent behavioral tests during week 3-4 after the beginning of the experiment. On day 28 animals were perfused under deep thiopental anesthesia and the brains were collected for histopathological analysis of neuronal loss and gliosis.
Mice were intoxicated chronically with 3NP with slowly increasing doses of toxin according to a previously used scheme (i.e. 4×10 mg/kg, 4×20 mg/kg, 4×40 mg/kg, 4×50 mg/kg intraperitoneal injections every 12th hour for a period of 8 days) to model MSA (Stefanova N. et al. Am. J. Pathol. 2005; 166:869-76)
The drug and vehicle (0.1 mol/L meglumine with 20% w/v hydroxypropyl-β-cyclodextrin, pH 10.8) were stored at 4° C. […]
as §5

In the case of `CC(C)OCCn1c(=S)[nH]c(=O)c2[nH]ccc21` [Compound I, 1-(2-Isopropoxyethyl)-2-thioxo-1,2,3,5-tetrahydro-pyrrolo[3,2-d]pyrimidin-4-one], the “microglial activation in substantia nigra and striatum” value in the assay on MSA mice (tg+3NP) [1] is reported as “suppression of microglial activation”. The “mean daily motor score” value in the assay with MSA mice (tg+3NP) [2] is “significant improvement”. The “flex field performance (rearing and open field activity)” value in the assay with MSA mice (tg+3NP) [3] is given as “significant improvement”. The “stride length test performance (left and right hindlimbs)” value in the assay on MSA mice (tg+3NP) [4] is on record as “significant improvement”. Further, the “striatonigral degeneration (TH immunopositive cells in substantia nigra, dopaminergic terminals in striatum, striatal DARPP-32 immunoreactive neurons)” value with MSA mice (tg+3NP) [5] (high dose 180 μmol/kg p.o. twice daily, FIG. 4) is “neuroprotective”. In addition, the “olivopontocerebellar atrophy (inferior olivary complex, pontine nuclei, Purkinje cells in the cerebellum)” value in the assay on MSA mice (tg+3NP) [5] (high dose 180 μmol/kg p.o. twice daily, FIG. 5) is recorded as “neuroprotective”. The “neuroprotection (neurons preserved in substantia nigra pars compacta, striatum, cerebellar cortex, pontine nuclei, inferior olivary complex)” value with MSA mice (tg+3NP) [5] (summary of findings, dose not stated) is listed as “significant neuroprotection”.
